Experimental data from patent publication US7026333B1, “Retroviral protease inhibitors” (G. D. Searle & Co., priority 1999, dated 2006).

Columns and labels:
CEM cells = assay: CEM cell assay, intrinsic toxicity of test compound without virus (MTT); assay type: cell-based; conditions: 7 days, concentration reducing cellular viability by 50%
Procedure: (§1) The effectiveness of the compounds tested in Part A was also determined in a CEM cell assay. The HIV inhibition assay method of acutely infected cells is an automated tetrazolium based colorimetric assay essentially that reported by Pauwles et al, J. Virol. Methods 20, 309–321 (1988). Assays were performed in 96-well tissue culture plates. CEM cells, a CD4 cell line, were grown in RPMI-1640 medium (Gibco) supplemented with a 10% fetal calf serum and were then treated with polybrene ([…]). An 80 μL volume of medium containing 1×10^4 cells was dispensed into each well of the tissue culture plate. To each well was added a 100 μL volume of test compound dissolved in tissue culture medium (or medium without test compound as a control) to achieve the desired final concentration and the cells were incubated at 37° C. for 1 hour. A frozen culture of HIV-1 was diluted in culture medium to a concentration of 5×10^4 TCID50 per mL (TCID50=the dose of virus that infects 50% of cells in tissue culture), and a 20 μL volume of the virus sample (containing 1000 TCID50 of virus) was added to wells containing test compound and to wells containing only medium (infected control cells). Several wells received culture medium without virus (uninfected control cells). Likewise, the intrinsic toxicity of the test compound was determined by adding medium without virus to several wells containing test compound. In summary, the tissue culture plates contained the following experiments:
In experiments 2 and 4, the final concentrations of test compounds were 1, 10, 100 and 500 μg/mL. Either azidothymidine (AZT) or dideoxyinosine (ddI) was included as a positive drug control. […] DMSO was added to all control wells at an appropriate concentration.
Following the addition of virus, cells were incubated at 37° C. in a humidified, 5% CO2 atmosphere for 7 days. Test compounds could be added on days 0, 2 and 5 if desired. On day 7, post-infection, the cells in each well were resuspended and a 100 μL sample of each cell suspension was removed for assay. A 20μL volume of a 5 mg/mL solution of 3-(4,5-dimethylthiazol-2-yl)-2,5-diphenyltetrazolium bromide (MTT) was added to each 100 μL cell suspension, and the cells were incubated for 4 hours at […] in a 5% CO2 environment. […] To each sample was added […] of 10% sodium dodecylsulfate in 0.01 N HCl to lyse the cells, and samples were incubated overnight. The absorbance at 590 nm was determined for each sample using a Molecular Devices microplate reader. Absorbance values for each set of wells is compared to assess viral control infection, uninfected control cell response as well as test compound by cytotoxicity and antiviral efficacy.
The calculated EC50 (effective concentration 50%, i.e., the concentration at which the inhibitor compound reduces cytopathicity by 50%) and TD50 (toxic dose 50%, i.e., the concentration at which the inhibitor compound reduces cellular viability by 50%) values for these compounds are also shown in Table 1.

HIV protease = target: T1, HIV protease (Human immunodeficiency virus type 1 group M subtype B, UniProt P04585); assay: Enzyme assay (HIV protease, fluorogenic substrate 2-aminobenzoyl-Ile-Nle-Phe(p-NO2)-Gln-ArgNH2); assay type: biochemical; conditions: HIV protease 12.3 nanomolar, substrate 80 μM, pH 6.4; read-out: Enzyme Inhibition (IC50)
T1 construct: HIV protease is diluted in the assay buffer to a final enzyme concentration of 12.3 nanomolar, based on a molecular weight of 10,780
Procedure: The calculated IC50 (inhibiting concentration 50%, i.e., the concentrations at which the inhibitor compound reduces enzyme activity by 50%) values are shown in Table 1. The enzyme method is described below. The substrate is 2-aminobenzoyl-Ile-Nle-Phe(p-NO2)-Gln-ArgNH2. The positive control is MVT-101 (Miller, M. et al, Science, 246, 1149 (1989)] The assay conditions are as follows:
Assay buffer: 20 mM sodium phosphate, pH 6.4
• 20% glycerol • 1 mM EDTA • 1 mM DTT • 0.1% CHAPS
The above described substrate is dissolved in DMSO, then diluted 10 fold in assay buffer. Final substrate concentration in the assay is 80 μM.
HIV protease is diluted in the assay buffer to a final enzyme concentration of 12.3 nanomolar, based on a molecular weight of 10,780.
The final concentration of DMSO is 14% and the final concentration of glycerol is 18%. The test compound is dissolved in DMSO and diluted in DMSO to 10× the test concentration; 10 μL of the enzyme preparation is added, the materials mixed and then the mixture is incubated at ambient temperature for 15 minutes. The enzyme reaction is initiated by the addition of 40 μL of substrate. The increase in fluorescence is monitored at 4 time points (0, 8, 16 and 24 minutes) at ambient temperature. Each assay is carried out in duplicate wells.

HIV-1 = assay: CEM cell assay, HIV inhibition in acutely infected cells (MTT); assay type: cell-based; conditions: Human immunodeficiency virus 1, CCRF-CEM, 168 h; CEM cells acutely infected with HIV-1, 7 days; concentration reducing cytopathicity by 50%; read-out: Antiviral Activity in Cell Culture (EC50)
Procedure: as §1, with “A frozen culture of HIV-1 was diluted in culture medium to a concentration of 5×10^4 TCID50 per mL (TCID50=the dose of virus that infects 50% of cells in tissue culture), and a 20 μL volume of the virus sample (containing 1000 TCID50 of virus) was added to wells containing test compound and to wells containing only medium (infected control cells). Several wells received culture medium without virus (uninfected control cells).” left out, “In summary, the tissue culture plates contained the following experiments:” left out
Following the addition of virus, cells were incubated at 37° C. in a humidified, 5% CO2 atmosphere for 7 days. […] The absorbance at 590 nm was determined for each sample using a Molecular Devices microplate reader. Absorbance values for each set of wells is compared to assess viral control infection, uninfected control cell response as well as test compound by cytotoxicity and antiviral efficacy. […]

SMILES	Cell Toxicity (TD50) (CEM cells)	IC50 (HIV protease)	EC50 (HIV-1)
CC(C)(C)NC(=O)[C@@H]1C[C@@H]2CCCC[C@@H]2CN1C[C@@H](O)[C@H](Cc1ccccc1)NC(=O)C[C@H](NC(=O)c1ccc2ccccc2n1)C(N)=O	5,000 nM		
C[C@@H](C(=O)N[C@@H](Cc1ccccc1)[C@H](O)CN1C[C@H]2CCCC[C@H]2C[C@H]1C(=O)NC(C)(C)C)C(C)(C)C(=O)O	50,000 nM		
C[C@@H](C(=O)N[C@@H](Cc1ccccc1)[C@H](O)CN1C[C@H]2CCCC[C@H]2C[C@H]1C(=O)NC(C)(C)C)C(C)(C)C(N)=O	59,000 nM	9 nM	98 nM
C[C@H](CS(C)(=O)=O)C(=O)N[C@@H](Cc1ccccc1)[C@H](O)CN1C[C@H]2CCCC[C@H]2C[C@H]1C(=O)NC(C)(C)C	58,000 nM		
COc1ccc(COC(=O)NC[C@@H](C)C(=O)N[C@@H](Cc2ccccc2)[C@H](O)CN2C[C@H]3CCCC[C@H]3C[C@H]2C(=O)NC(C)(C)C)cc1	2,000 nM		
